# Measurements taken from article PMC10220917, “Transdermal Delivery of α-Aminophosphonates as Semisolid Formulations—An In Vitro-Ex Vivo Study” (Pharmaceutics, 2023).
# Where “and” joins values, the source holds several entries; their conditions need not be identical. Equal entries are not always repeated.
# How the values were obtained:
# [1] = tested on: multidrug-resistant (MDR) uterine sarcome cell line; set-up: method as in earlier work; conditions: MDR uterine sarcoma cells; cited from earlier work
# [2] = Drug release in dynamic skin-on-a-chip microfluidic diffusion chamber through cellulose acetate membrane; format: in vitro ADME; conditions: 2% cream
# Protocol: (§1) For the in vitro studies, cellulose acetate filter with pore size of 0.45 μm (Sartorius AG, Göttingen, Germany) was cut to size (35 mm and 18 mm diameter discs for Franz diffusion cell and skin-on-a-chip microfluidic system, respectively) and soaked in isopropyl myristate (Molar Chemicals Kft., Halásztelek, Hungary) for 30 min before the experiment. The excess of isopropyl myristate was removed, and the impregnated cellulose acetate membrane was placed into the Franz diffusion cell or microfluidic diffusion chamber.
# The skin-on-a-chip microfluidic diffusion chamber is a polydimethylsiloxane-based system in an aluminium frame (Figure 1B). Similar to the Franz diffusion cells, it contains two compartments, and the membrane or skin is placed between them. The major advantage of this technique is the reduction in needed volumes and pieces in the required components, membranes and skins, as discussed in detail in our previous papers. The diffusion surface is 0.5 cm^2, which separates the aminophosphonate cream-containing donor chamber and the PPF-filled receptor chamber. […]
# (§2) The Franz diffusion cell data and the skin-on-a-chip data were averaged, and the means and standard error of the mean (SE) were calculated and presented. Area under the curve (AUC) values were calculated using Origin Pro software. […]
# [3] = Drug penetration in static Franz diffusion cells through excised rat skin; format: in vitro ADME, male Wistar rats; conditions: 2% cream, Franz cell, 32 °C
# Protocol: In the ex vivo experiments, the abdominal skin of male Wistar rats (ToxiCoop, Budapest, Hungary), with 520–609 g bodyweight, were used. The animals had free access to food and water before the study. The experiments were performed in compliance with the guidelines of the Association for Assessment and Accreditation of Laboratory Animal Care International and were in accordance with the spirit of the license issued by the Directorate for the Safety of the Food Chain and Animal Health, Budapest, and Pest Agricultural Administrative Authority, Hungary (PE/EA/4122-7/2016). The rats were anaesthetized intraperitoneally with chloral hydrate (400 mg/kg). The abdominal surface was shaved with an electric shaver and epilated with an epilator cream (X-epil, Aveola Kft., Budapest, Hungary). […] The double-layered skin (pinched together by hand) thickness of the epilated tape-stripped skin was measured with an engineer’s micrometer (Asimeto, Budapest, Hungary). […]
# Hanson 6-Cell Manual Diffusion Test System-type vertical diffusion cells (Franz cell) were used (Hanson Research Corp., Chatsworth CA, USA; ABL&E-JASCO Hungary Kft., Budapest, Hungary, Figure 1A). […] The weight of the sample was measured with analytical accuracy. […]
# [4] = Drug penetration in dynamic skin-on-a-chip microfluidic diffusion chamber through excised rat skin; format: in vitro ADME, male Wistar rats; conditions: 2% cream; for Cmax (cumulative mass penetrated through excised skin): dynamic cell, excised rat skin, 5 h; for Effect of higher temperature on absorption across excised skins: 32 °C vs 23.5 °C, dynamic diffusion cells
# Protocol: In the ex vivo experiments, the abdominal skin of male Wistar rats (ToxiCoop, Budapest, Hungary), with 520–609 g bodyweight, were used. The animals had free access to food and water before the study. The experiments were performed in compliance with the guidelines of the Association for Assessment and Accreditation of Laboratory Animal Care International and were in accordance with the spirit of the license issued by the Directorate for the Safety of the Food Chain and Animal Health, Budapest, and Pest Agricultural Administrative Authority, Hungary (PE/EA/4122-7/2016). The rats were anaesthetized intraperitoneally with chloral hydrate (400 mg/kg). The abdominal surface was shaved with an electric shaver and epilated with an epilator cream (X-epil, Aveola Kft., Budapest, Hungary). The skin was washed, wiped dry and mechanically sensitized 10 times by tape stripping with leucoplast (BSN Medical GmbH, Hamburg, Germany) to remove the upper layers of dead keratinocytes. This technique enables reaching detectable concentrations in the dermis and hypodermis. The double-layered skin (pinched together by hand) thickness of the epilated tape-stripped skin was measured with an engineer’s micrometer (Asimeto, Budapest, Hungary). The average double-layered skin thickness was 1.53 ± 0.03 mm. After the first cutting with blunt Metzen scissors, connecting tissue, fat and blood vessels were carefully removed. For the Franz diffusion cell and skin-on-a-chip studies, full-thickness skin incisions were made by punches (Stubai GmbH, Fulpmes, Austria) in diameter of 35 mm and 18 mm, respectively. The excised samples were wrapped in aluminium foil and stored in a deep freezer at −80 °C. On the day of the study, the skin preparations were taken out from the freezer for 30 min before the initiation of the experiment and thawed at room temperature.
# The skin-on-a-chip microfluidic diffusion chamber is a polydimethylsiloxane-based system in an aluminium frame (Figure 1B). Similar to the Franz diffusion cells, it contains two compartments, and the membrane or skin is placed between them. The major advantage of this technique is the reduction in needed volumes and pieces in the required components, membranes and skins, as discussed in detail in our previous papers. The diffusion surface is 0.5 cm^2, which separates the aminophosphonate cream-containing donor chamber and the PPF-filled receptor chamber. Contrary to the static Franz diffusion cells, the microfluidic diffusion chamber is a dynamic system, i.e., the PPF flow is continuous in the receptor compartment, ensured by a syringe pump (NE-1000, New Era, Farmingdale, NY, USA), which includes a 5 mL syringe filled with PPF, at a flow rate of 4 µL/min during the experiment. The PPF solution was running through the chip, filling the receptor chamber and the microfluidic channel and leaving the device at the outlet into collection vials. The samples were collected every 30 min for 5 h. The collected samples were placed on dry ice and stored at −80 °C until the bioanalysis. First, the experiments were performed at room temperature (23.5 °C) with temperature regulation by automatic air conditioning system in the lab in three parallels. The investigations were then repeated at 32 °C, putting the whole system into an incubator (Steriliser SN160, Memmert GmbH, Schwabach, Germany). As the volume capacity of incubator was low, only one syringe pump and skin-on-a-chip could be tested in the instrument at the same time. […]
# [5] = Drug release in static Franz diffusion cells through cellulose acetate membrane; format: in vitro ADME; conditions: 2% cream, Franz cell, 32 °C
# Protocol: as §1
# Hanson 6-Cell Manual Diffusion Test System-type vertical diffusion cells (Franz cell) were used (Hanson Research Corp., Chatsworth CA, USA; ABL&E-JASCO Hungary Kft., Budapest, Hungary, Figure 1A). Each unit was composed of a donor chamber, which was filled with 1000 µL of the aminophosphonate cream by a Microman E piston gel positive replacement pipette (Gilson, Middleton, WI, USA). The sample was layered in a uniform layer on the top of the membrane. The weight of the sample was measured with analytical accuracy. […]
# as §2
# [6] = Particle size (droplet size) distribution of 2% creams by laser diffraction; format: physicochemical; conditions: 2% cream formulation
# Source text: α-Aminophosphonates were dispersed in the following hydrophilic cream base (O/W emulsion ointments): 46 m/m% Petrolatum ointment base, 10 m/m% Propylene glycol (Hungaropharma Zrt., Budapest, Hungary), 4 m/m% Paraffin oil (Hungaropharma Zrt., Budapest, Hungary), 38 m/m% Purified water. The components of the Petrolatum ointment base were 26 m/m% Vaselinum album (Hungaropharma Zrt., Budapest, Hungary), 12 m/m% Cetostearyl alcohol (Molar Chemicals Kft, Halásztelek, Hungary), 10 m/m% Propylene glycol, 8 m/m% Paraffin oil, 4 m/m% Polyoxyethylene sorbitan monostearate (Poly-sorbate 60) (Hungaropharma Zrt. Budapest, Hungary), and 40 m/m% Purified water (Table 3). The concentration of propylene glycol was set based on the recommendations on topical dosage forms.
# The particle size distribution was measured with a Malvern Mastersizer2000 (Malvern Instruments Ltd., Malvern, UK) laser diffraction device. In total, 1 g of sample was dispersed in 10 mL of water, and after 1 min of Vortex shaking, 1 mL was taken and added to the sample dispenser unit containing 100 mL of purified water. The dispenser unit was applied at 1500 RPM.
# The multi-channel detector system measured the scattering of red laser light with a wavelength of […], and the evaluation software provided the results after three parallel exposures according to the Fraunhofer method. The average curves were calculated from three parallel measurements. […]
structure (smiles),measurement,setting,value
CCOP(=O)(OCC)C(NCc1ccccc1)c1ccccc1 (stereo not drawn) [1a],Degree of cytotoxicity,[1],less cytotoxic
same,Cmax (cumulative mass released through membrane),"[2]; dynamic cell, cellulose acetate membrane, 32 °C, 5 h",~ 300 µg/cm^2
same,Effect of higher temperature on penetration through membranes,"[2]; 32 °C vs 23.5 °C, dynamic diffusion cells",only moderately enhanced
same,Penetration profile in rat skin,[3],almost linear growing profile
same,Cmax (cumulative mass penetrated through excised skin),"[3]; excised rat skin, 5 h",~ 21 µg/cm^2
same,Cmax (cumulative mass penetrated through excised skin),[4]; 32 °C,~ 9 µg/cm^2
same,Cmax (cumulative mass penetrated through excised skin),[4]; ambient temperature (23.5 °C),~ 2.8 μg/cm^2
same,Effect of higher temperature on absorption across excised skins,[4],significantly improved
same,Penetration kinetics in the membrane,[5],rapid and saturating
same,Cmax (cumulative mass released through membrane),"[5]; cellulose acetate membrane, 5 h",~ 330 µg/cm^2
same,Particle (droplet) size d of main peak,[6],33.156 µm and 33 µm
same,Volume share at main particle size peak,[6],7%
CCOP(=O)(OCC)C(NCc1ccccc1)c1ccc(C)cc1 (stereo not drawn) [1b],Degree of cytotoxicity,[1],most effective
same,Effect of higher temperature on absorption across excised skins,[4],practically independent of the temperature
same,Particle (droplet) size d of main peak,[6],30–40 µm
same,Particle (droplet) size d of second peak,[6],110 µm
same,Volume share at main particle size peak,[6],about 6.3%
same,Volume share at second particle size peak,[6],about 3.2%
CCOP(=O)(OCC)C(NCc1ccccc1)c1ccc(Cl)cc1 (stereo not drawn) [1c],Degree of cytotoxicity,[1],most effective
same,Effect of higher temperature on absorption across excised skins,[4],significantly improved
same,Particle (droplet) size d of main peak,[6],20–30 µm
same,Particle (droplet) size d of second peak,[6],110 µm
same,Volume share at main particle size peak,[6],7.3%
same,Volume share at second particle size peak,[6],~ 3.0%
